# Laboratory results taken from patent US20250171430A1, “PYRAZOLYL COMPOUNDS AS KV7 CHANNEL ACTIVATORS” (Biohaven Therapeutics Ltd., priority 2022, published 2025).
# Molecular target: T1, Kv7.2/7.3 (Homo sapiens, UniProt O43525+O43526)
# T1 construct: Kv7.2 tetracycline-induced, Kv7.3 constitutive
# Experiment: Kv7.2/7.3 Activation Assay (Thallium Flux Assay)
# Type: cell-based
# Details: hKV7.2/7.3 cell line; test compound at single concentration of 10 μM; fluorescence at 90 sec normalized to positive control (retigabine, 30 μM)
# Procedure, shortened: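 Single-point activity at 10 μM (0.1% DMSO, HEPES-buffered saline, pH 7.4) was scored from fluorescence at 90 s relative to 30 μM retigabine. Categories were none <0.15, moderate 0.15-0.7 and high >0.7. Thallium influx after stimulus addition was followed with FluxOR II Green dye in hKv7.2/7.3 cells, Kv7.2 expressed under overnight tetracycline (10 ng/mL) induction.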
row,Kv7.2/7.3 Activity,Compound
1,++ (“++” High Activity ≥ 0.7),"Cn1nc(NC(=O)[C@H]2CC2(F)F)c(C2CC2)c1-c1ccc(F)cc1 [Compound 164, (R)-N-(4-cyclopropyl-5-(4-fluorophenyl)-1-methyl-1H-pyrazol-3-yl)-2,2-difluorocyclopropane-1-carboxamide]"
2,++ (“++” High Activity ≥ 0.7),"Cn1nc(NC(=O)C2(C(F)(F)F)CC2)c(C2CC2)c1-c1ccc(F)cc1 [Compound 165, N-(4-cyclopropyl-5-(4-fluorophenyl)-1-methyl-1H-pyrazol-3-yl)-1-(trifluoromethyl)cyclopropane-1-carboxamide]"
3,++ (“++” High Activity ≥ 0.7),"Cn1nc(NC(=O)C2(C(F)(F)F)CC2)c(C2CCC2)c1-c1cccc(F)c1 [Compound 166, N-(4-cyclobutyl-5-(3-fluorophenyl)-1-methyl-1H-pyrazol-3-yl)-1-(trifluoromethyl)cyclopropane-1-carboxamide]"
4,+ (“+” Moderate Activity 0.15-0.7),"Cn1nc(NC(=O)[C@@H]2CC2(F)F)c(C2CCC2)c1-c1cccc(F)c1 [Compound 167, (S)-N-(4-cyclobutyl-5-(3-fluorophenyl)-1-methyl-1H-pyrazol-3-yl)-2,2-difluorocyclopropane-1-carboxamide]"
5,++ (“++” High Activity ≥ 0.7),"Cn1nc(NC(=O)[C@H]2CC2(F)F)c(C2CCC2)c1-c1cccc(F)c1 [Compound 168, (R)-N-(4-cyclobutyl-5-(3-fluorophenyl)-1-methyl-1H-pyrazol-3-yl)-2,2-difluorocyclopropane-1-carboxamide]"
6,+ (“+” Moderate Activity 0.15-0.7),"O=C(Nc1nn(CC(F)(F)F)c(-c2ccc(F)cc2)c1C1CCC1)C1(C(F)(F)F)CC1 [Compound 169, N-(4-cyclobutyl-5-(4-fluorophenyl)-1-(2,2,2-trifluoroethyl)-1H-pyrazol-3-yl)-1-(trifluoromethyl)cyclopropane-1-carboxamide]"
7,+ (“+” Moderate Activity 0.15-0.7),"Cn1nc(NC(=O)C2(C(F)(F)F)CC2)c(C2CCC2)c1-c1ccccc1F [Compound 170, N-(4-cyclobutyl-5-(2-fluorophenyl)-1-methyl-1H-pyrazol-3-yl)-1-(trifluoromethyl)cyclopropane-1-carboxamide]"
8,+ (“+” Moderate Activity 0.15-0.7),"Cn1nc(NC(=O)C2(C(C)(F)F)CC2)c(C2CCC2)c1-c1ccccc1F [Compound 171, N-(4-cyclobutyl-5-(2-fluorophenyl)-1-methyl-1H-pyrazol-3-yl)-1-(1,1-difluoroethyl)cyclopropane-1-carboxamide]"
9,+ (“+” Moderate Activity 0.15-0.7),"Cn1nc(NC(=O)C(C)(C)C(F)F)c(C2CCC2)c1-c1ccccc1F [Compound 172, N-(4-cyclobutyl-5-(2-fluorophenyl)-1-methyl-1H-pyrazol-3-yl)-3,3-difluoro-2,2-dimethylpropanamide]"
10,− (“−” No Activity < 0.15),"Cn1nc(NC(=O)[C@H]2CC2(F)F)c(C2CCC2)c1-c1ccc(OC(F)(F)F)cc1 [Compound 173, (R)-N-(4-cyclobutyl-1-methyl-5-(4-(trifluoromethoxy)phenyl)-1H-pyrazol-3-yl)-2,2-difluorocyclopropane-1-carboxamide]"
11,+ (“+” Moderate Activity 0.15-0.7),"Cn1nc(NC(=O)[C@@H]2CC2(F)F)c(C2CCC2)c1-c1ccc(OC(F)(F)F)cc1 [Compound 174, (S)-N-(4-cyclobutyl-1-methyl-5-(4-(trifluoromethoxy)phenyl)-1H-pyrazol-3-yl)-2,2-difluorocyclopropane-1-carboxamide]"
12,++ (“++” High Activity ≥ 0.7),"Cn1nc(NC(=O)CC(C)(O)c2ccc(F)cc2F)c(C2CCC2)c1-c1ccc(OC(F)(F)F)cc1 (stereo not drawn) [Compound 175, N-(4-cyclobutyl-1-methyl-5-(4-(trifluoromethoxy)phenyl)-1H-pyrazol-3-yl)-3-(2,4-difluorophenyl)-3-hydroxybutanamide]"
13,++ (“++” High Activity ≥ 0.7),"Cn1nc(NC(=O)CC(C)(O)c2ccc(F)cc2F)c(C2CCC2)c1-c1ccc(OC(F)(F)F)cc1 (stereo not drawn) [Compound 176, N-(4-cyclobutyl-1-methyl-5-(4-(trifluoromethoxy)phenyl)-1H-pyrazol-3-yl)-3-(2,4-difluorophenyl)-3-hydroxybutanamide]"
14,++ (“++” High Activity ≥ 0.7),"C[C@H](C(=O)Nc1nn(C)c(-c2ccc(OC(F)(F)F)cc2)c1C1CCC1)C1CC(F)(F)C1 [Compound 177, (S)-N-(4-cyclobutyl-1-methyl-5-(4-(trifluoromethoxy)phenyl)-1H-pyrazol-3-yl)-2-(3,3-difluorocyclobutyl)propanamide]"
15,− (“−” No Activity < 0.15),"C[C@@H](C(=O)Nc1nn(C)c(-c2ccc(OC(F)(F)F)cc2)c1C1CCC1)C1CC(F)(F)C1 [Compound 178, (R)-N-(4-cyclobutyl-1-methyl-5-(4-(trifluoromethoxy)phenyl)-1H-pyrazol-3-yl)-2-(3,3-difluorocyclobutyl)propanamide]"
16,++ (“++” High Activity ≥ 0.7),"Cn1nc(NC(=O)C23CC(C(F)(F)F)(C2)C3)c(C2CCC2)c1-c1ccc(F)cc1 [Compound 179, N-(4-cyclobutyl-5-(4-fluorophenyl)-1-methyl-1H-pyrazol-3-yl)-3-(trifluoromethyl)bicyclo[1.1.1]pentane-1-carboxamide]"
17,++ (“++” High Activity ≥ 0.7),"Cn1nc(NC(=O)CC(C(F)(F)F)C(F)(F)F)c(C2CCC2)c1-c1ccc(OC(F)(F)F)cc1 [Compound 180, N-(4-cyclobutyl-1-methyl-5-(4-(trifluoromethoxy)phenyl)-1H-pyrazol-3-yl)-4,4,4-trifluoro-3-(trifluoromethyl)butanamide]"
18,− (“−” No Activity < 0.15),"Cn1nc(NC(=O)C(C)(O)c2ccccc2)c(C2CCC2)c1-c1ccc(OC(F)(F)F)cc1 (stereo not drawn) [Compound 181, N-(4-cyclobutyl-1-methyl-5-(4-(trifluoromethoxy)phenyl)-1H-pyrazol-3-yl)-2-hydroxy-2-phenylpropanamide]"
19,++ (“++” High Activity ≥ 0.7),"Cn1nc(NC(=O)C(C)(O)c2ccccc2)c(C2CCC2)c1-c1ccc(OC(F)(F)F)cc1 (stereo not drawn) [Compound 182, N-(4-cyclobutyl-1-methyl-5-(4-(trifluoromethoxy)phenyl)-1H-pyrazol-3-yl)-2-hydroxy-2-phenylpropanamide]"
20,++ (“++” High Activity ≥ 0.7),"Cn1nc(NC(=O)[C@H]2C[C@@H](C)C2)c(C2CCC2)c1-c1ccc(OC(F)(F)F)cc1 [Compound 183, (1s,3s)-N-(4-cyclobutyl-1-methyl-5-(4-(trifluoromethoxy)phenyl)-1H-pyrazol-3-yl)-3-methylcyclobutane-1-carboxamide]"
21,++ (“++” High Activity ≥ 0.7),"Cn1nc(NC(=O)[C@H]2C[C@H](C)C2)c(C2CCC2)c1-c1ccc(OC(F)(F)F)cc1 [Compound 184, (1r,3r)-N-(4-cyclobutyl-1-methyl-5-(4-(trifluoromethoxy)phenyl)-1H-pyrazol-3-yl)-3-methylcyclobutane-1-carboxamide]"
22,++ (“++” High Activity ≥ 0.7),"Cn1nc(NC(=O)C2CC(C)(C)C2)c(C2CCC2)c1-c1ccc(OC(F)(F)F)cc1 [Compound 185, N-(4-cyclobutyl-1-methyl-5-(4-(trifluoromethoxy)phenyl)-1H-pyrazol-3-yl)-3,3-dimethylcyclobutane-1-carboxamide]"
23,++ (“++” High Activity ≥ 0.7),"Cn1nc(NC(=O)C2CC3(C2)CC3(F)F)c(C2CCC2)c1-c1ccc(OC(F)(F)F)cc1 (stereo not drawn) [Compound 186, N-(4-cyclobutyl-1-methyl-5-(4-(trifluoromethoxy)phenyl)-1H-pyrazol-3-yl)-1,1-difluorospiro[2.3]hexane-5-carboxamide]"
24,++ (“++” High Activity ≥ 0.7),"Cn1nc(NC(=O)C2CC3(CCC3)C2)c(C2CCC2)c1-c1ccc(F)cc1 [Compound 187, N-(4-cyclobutyl-5-(4-fluorophenyl)-1-methyl-1H-pyrazol-3-yl)spiro[3.3]heptane-2-carboxamide]"
25,++ (“++” High Activity ≥ 0.7),"Cn1nc(NC(=O)C2CC(F)(F)C2)c(C2CCC2)c1C1CC(C)(C)C1 [Compound 188, N-(4-cyclobutyl-5-(3,3-dimethylcyclobutyl)-1-methyl-1H-pyrazol-3-yl)-3,3-difluorocyclobutane-1-carboxamide]"
26,+ (“+” Moderate Activity 0.15-0.7),"Cn1nc(NC(=O)C2CC(F)(F)C2)c(C2CCC2)c1-c1ccc(OC(F)(F)F)cc1 [Compound 189, N-(4-cyclobutyl-1-methyl-5-(4-(trifluoromethoxy)phenyl)-1H-pyrazol-3-yl)-3,3-difluorocyclobutane-1-carboxamide]"
27,++ (“++” High Activity ≥ 0.7),"Cn1nc(NC(=O)C2CCC2)c(C2CCC2)c1-c1ccc(OC(F)(F)F)cc1 [Compound 190, N-(4-cyclobutyl-1-methyl-5-(4-(trifluoromethoxy)phenyl)-1H-pyrazol-3-yl)cyclobutanecarboxamide]"
28,++ (“++” High Activity ≥ 0.7),"Cn1nc(NC(=O)C2CC(C(F)(F)F)C2)c(C2CCC2)c1-c1ccc(OC(F)(F)F)cc1 (stereo not drawn) [Compound 191, N-(4-cyclobutyl-1-methyl-5-(4-(trifluoromethoxy)phenyl)-1H-pyrazol-3-yl)-3-(trifluoromethyl)cyclobutane-1-carboxamide]"
29,++ (“++” High Activity ≥ 0.7),"Cn1nc(NC(=O)C2CC(F)(F)C2)c(C2CCC2)c1-c1ccc(F)c(F)c1 [Compound 192, N-(4-cyclobutyl-5-(3,4-difluorophenyl)-1-methyl-1H-pyrazol-3-yl)-3,3-difluorocyclobutane-1-carboxamide]"
30,++ (“++” High Activity ≥ 0.7),"Cn1nc(NC(=O)C2CC(F)(F)C2)c(C2CCC2)c1-c1cccc(F)c1 [Compound 193, N-(4-cyclobutyl-5-(3-fluorophenyl)-1-methyl-1H-pyrazol-3-yl)-3,3-difluorocyclobutane-1-carboxamide]"
